Results published in PubChem BioAssay (NCI).
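1) Cells in 96-well plates. 2) Compound, 48 h, 5 concentrations. 3) Linear interpolation between surrounding doses. 4) Unreached endpoint = highest concentration. Here, GI50 denotes the concentration required for 50% inhibition of growth. TGI marks complete inhibition of growth.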

Assays:
Assay in all cases: NCI anticancer screen, dose series, 48 h
UACC-62 melanoma = test system: UACC-62 melanoma
ACHN renal = test system: ACHN renal
MOLT-4 leukemia = test system: MOLT-4 leukemia
BT-549 breast = test system: BT-549 breast
SR leukemia = test system: SR leukemia
MALME-3M melanoma = test system: MALME-3M melanoma
HL-60(TB) leukemia = test system: HL-60(TB) leukemia
NCI-H460 lung = test system: NCI-H460 lung
RPMI-8226 leukemia = test system: RPMI-8226 leukemia
HCT-15 colon = test system: HCT-15 colon
SF-539 CNS = test system: SF-539 CNS

| Compound | TGI (UACC-62 melanoma) [µM] | TGI (ACHN renal) [µM] | TGI (MOLT-4 leukemia) [µM] | TGI (BT-549 breast) [µM] | TGI (SR leukemia) [µM] | TGI (MALME-3M melanoma) [µM] | TGI (HL-60(TB) leukemia) [µM] | TGI (NCI-H460 lung) [µM] | TGI (RPMI-8226 leukemia) [µM] | TGI (HCT-15 colon) [µM] | TGI (SF-539 CNS) [µM] | GI50 (UACC-62 melanoma) [µM] | GI50 (ACHN renal) [µM] | GI50 (MOLT-4 leukemia) [µM] | GI50 (BT-549 breast) [µM] | GI50 (SR leukemia) [µM] | GI50 (SF-539 CNS) [µM] | GI50 (MALME-3M melanoma) [µM] | GI50 (HL-60(TB) leukemia) [µM] | GI50 (RPMI-8226 leukemia) [µM] |
| --- | --- | --- | --- | --- | --- | --- | --- | --- | --- | --- | --- | --- | --- | --- | --- | --- | --- | --- | --- | --- |
| COC1/C=C/C(C)C(OC)CC(O)/C=C/C(C)C(C(C)C(OC)C(C)CCC(=O)C(C)C(C/C=C/N(C)C=O)OC)OC(=O)/C=C/C=C(\C)CC(OC)C(OC)C2=CC(=O)O[C@@H](C(C)C(OC)C1)[C@H]2O (stereo partly drawn) | 0.185 | 0.158 | > 9.73 | 0.163 | > 25 | 0.115 | > 25 | 0.188 | 3.24 | – | – | – | – | – | – | – | – | – | – | – |
| CN(Cc1cnc2nc(N)nc(N)c2n1)c1ccc(C(=O)NC(CCS(=O)(=O)O)C(=O)O)cc1 (stereo not drawn) | > 100 | > 100 | > 100 | > 100 | > 100 | > 100 | 1.62 | > 31.6 | > 100 | > 100 | > 100 | – | – | – | – | – | – | – | – | – |
| O=C(N=Nc1ccc([N+](=O)[O-])cc1)NNc1ccc([N+](=O)[O-])cc1 | 22.2 | 38.8 | 40.8 | > 100 | 72.6 | 53.1 | 46.9 | 47.2 | 58.2 | 62.8 | – | – | – | – | – | – | – | – | – | – |
| CCN(CC)CCNc1ccc([N+](=O)[O-])c2nc3ccccc3c(N)c12 | 4.07 | 3.75 | 2.23 | 2.38 | 2.39 | – | 2.11 | 1.24 | 6.18 | 1.75 | 1.84 | – | – | – | – | – | – | – | – | – |
| COCCc1c(C)c(C#N)c2n(C)c3ccccc3n2c1=O | > 10 | > 10 | > 10 | > 10 | > 10 | > 10 | > 10 | > 10 | > 10 | > 10 | > 10 | – | – | – | – | – | – | – | – | – |
| NS(=O)(=O)c1ccc(NNC(=O)c2cccc3c(=O)c4ccccc4[nH]c23)cc1 | > 100 | > 100 | > 100 | > 100 | > 100 | > 100 | > 100 | > 100 | > 100 | > 100 | > 100 | – | – | – | – | – | – | – | – | – |
| ON=C1CCCCC(=NO)CCCC1 | > 100 | > 100 | – | > 100 | – | > 100 | – | > 100 | > 100 | > 100 | > 100 | – | – | – | – | – | – | – | – | – |
| COC(=O)N1CC[C@@H]2CCC=C(c3cccc4c3OCO4)[C@@H]21 | > 100 | > 100 | > 100 | > 100 | > 100 | > 100 | > 100 | > 100 | – | > 100 | > 100 | – | – | – | – | – | – | – | – | – |
| CCCCc1ccc(Nc2nc3c(ncn3C3OC(COC(C)=O)C(OC(C)=O)C3OC(C)=O)c(=O)[nH]2)cc1 (stereo not drawn) | 34.7 | > 100 | 37.8 | 32.2 | 35.9 | 36.8 | 55.6 | 32.7 | 48.9 | > 100 | 57.9 | – | – | – | – | – | – | – | – | – |
| Clc1cc2nc(C3CCCO3)[nH]c2cc1Cl (stereo not drawn) | > 100 | > 100 | > 100 | 91.3 | > 100 | > 100 | > 100 | – | > 100 | > 100 | > 100 | – | – | – | – | – | – | – | – | – |
| COC(=O)C12CCC(C(=O)OC)(Cc3c(c4ccccc4n3S(=O)(=O)c3ccccc3)C1)C2=O (stereo not drawn) | > 100 | > 100 | > 100 | > 100 | > 100 | > 100 | – | > 100 | > 100 | > 100 | > 67.3 | – | – | – | – | – | – | – | – | – |
| CCN(CC)CCN1C(=O)c2cccc3c(-c4ccc5c(c4)ncn5C4CCCCC4)ccc(c23)C1=O | 3.03 | 2.96 | 3.88 | 2.3 | 2.06 | 2.81 | 4.61 | – | 3.53 | – | 2.75 | 1.56 | 1.16 | 1.1 | 0.922 | 0.414 | 1.37 | 1.38 | 1.95 | 1.17 |
| CC(C)OP(=O)(OC(C)C)C(C(F)(F)F)C(F)(F)F | > 100 | > 100 | > 100 | > 100 | > 100 | > 100 | > 100 | – | > 100 | > 100 | > 100 | – | – | – | – | – | – | – | – | – |
| O=C(O)CC(NC(=O)C(F)(F)F)C(=O)NC1Cc2ccccc2OC1=O (stereo not drawn) | > 100 | > 100 | > 100 | > 100 | > 100 | > 100 | – | > 100 | > 100 | > 100 | > 100 | – | – | – | – | – | – | – | – | – |
| Cn1c(-c2ccccc2)cc(-c2ccc3c(c2)OCO3)c1-c1cccs1 | > 100 | > 100 | > 100 | > 100 | > 100 | – | > 100 | > 100 | > 100 | > 100 | > 100 | – | – | – | – | – | – | – | – | – |
| O=C(Nc1ccc(Cl)cc1)c1cc(S(=O)(=O)Nc2n[nH]c(=O)[nH]2)c(SSc2cc(Cl)c(C(=O)Nc3ccc(Cl)cc3)cc2S(=O)(=O)Nc2n[nH]c(=O)[nH]2)cc1Cl | > 100 | > 100 | > 100 | > 100 | > 100 | > 100 | > 100 | > 100 | > 100 | > 100 | – | – | – | – | – | – | – | – | – | – |
| C/C(Cl)=N\OC(=O)Nc1ccc([N+](=O)[O-])cc1 | 48.6 | 9.2 | 3.97 | 66.7 | 74.2 | 7.95 | 4.09 | 38.8 | – | 34.2 | 31.8 | – | – | – | – | – | – | – | – | – |
| C/C(CC(O)(C(F)(F)F)C(F)(F)F)=N\N | > 10 | > 10 | > 10 | > 10 | – | > 10 | > 10 | > 10 | > 10 | > 10 | > 10 | – | – | – | – | – | – | – | – | – |
| Cc1cccc2c1Oc1cc(Cl)ccc1C2NC(=O)CCN1CCCCC1 (stereo not drawn) | 30 | – | 34.3 | 33.4 | 35 | – | 38.3 | 31.6 | 63 | 32.7 | 31.9 | – | – | – | – | – | – | – | – | – |
| C=C1c2nc3ccccc3n2C=C(c2ccc(Cl)cc2)N1c1ccc(OCCN2CCOCC2)cc1 | 99.6 | > 100 | – | > 100 | 42 | > 100 | 35 | > 100 | 10.9 | > 100 | > 100 | – | – | – | – | – | – | – | – | – |
